Assay: xn = mol fraction of the nth substance listed
Details: 101 kPa

CC[NH+](CC)CC.O=[N+]([O-])[O-] + CC[NH3+].O=[N+]([O-])[O-]
Details	electrical conductivity [S/m]	viscosity [mPa·s]
293.15 K, x1 = 0.0499	1.67	46.6
293.15 K, x1 = 0.0999	1.45	51.2
293.15 K, x1 = 0.3995	0.71	90.2
293.15 K, x1 = 0.4472	0.62	100
293.15 K, x1 = 0.5003	0.56	108.1
293.15 K, x1 = 0.5485	0.56	105.4
298.15 K, x1 = 0.0499	1.96	39
298.15 K, x1 = 0.0999	1.71	42.5
298.15 K, x1 = 0.1997	1.36	51.1
298.15 K, x1 = 0.25	1.16	56.2
298.15 K, x1 = 0.2993	1.02	62.4
298.15 K, x1 = 0.3475	0.95	66.9
298.15 K, x1 = 0.3995	0.85	71.8
298.15 K, x1 = 0.4472	0.75	79.3
298.15 K, x1 = 0.5003	0.68	85.2
298.15 K, x1 = 0.5485	0.68	83.1
303.15 K, x1 = 0.0499	2.27	32.9
303.15 K, x1 = 0.0999	1.99	35.7
303.15 K, x1 = 0.149	1.77	37.9
303.15 K, x1 = 0.1997	1.59	42.5
303.15 K, x1 = 0.25	1.36	46.5
303.15 K, x1 = 0.2993	1.2	51.4
303.15 K, x1 = 0.3995	1.01	58.5
303.15 K, x1 = 0.4472	0.9	64.3
303.15 K, x1 = 0.5003	0.82	68.8
303.15 K, x1 = 0.5485	0.81	67
308.15 K, x1 = 0.0499	2.6	28.1
308.15 K, x1 = 0.0999	2.29	30.3
308.15 K, x1 = 0.149	2.05	32.1
308.15 K, x1 = 0.1997	1.84	35.7
308.15 K, x1 = 0.25	1.58	39
308.15 K, x1 = 0.2993	1.4	42.8
308.15 K, x1 = 0.3475	1.31	45.4
308.15 K, x1 = 0.3995	1.18	48.3
308.15 K, x1 = 0.4472	1.06	52.8
308.15 K, x1 = 0.5003	0.96	56.3
308.15 K, x1 = 0.5485	0.96	54.7
313.15 K, x1 = 0.0499	2.96	24.1
313.15 K, x1 = 0.0999	2.61	26
313.15 K, x1 = 0.149	2.35	27.7
313.15 K, x1 = 0.1997	2.12	30.7
313.15 K, x1 = 0.25	1.81	33
313.15 K, x1 = 0.2993	1.63	36.1
313.15 K, x1 = 0.3475	1.52	38.5
313.15 K, x1 = 0.5003	1.13	47.1
313.15 K, x1 = 0.5485	1.12	45.8
318.15 K, x1 = 0.0499	3.33	21
318.15 K, x1 = 0.0999	2.95	22.6
318.15 K, x1 = 0.149	2.66	23.7
318.15 K, x1 = 0.1997	2.41	26
318.15 K, x1 = 0.25	2.07	28.2
318.15 K, x1 = 0.2993	1.86	30.6
318.15 K, x1 = 0.3475	1.74	32.3
318.15 K, x1 = 0.3995	1.58	34.1
318.15 K, x1 = 0.4472	1.41	36.9
318.15 K, x1 = 0.5003	1.3	39.1
318.15 K, x1 = 0.5485	1.29	37.9
323.15 K, x1 = 0.0499	3.73	18.4
323.15 K, x1 = 0.149	2.99	20.6
323.15 K, x1 = 0.1997	2.71	22.5
323.15 K, x1 = 0.25	2.34	24.2
323.15 K, x1 = 0.2993	2.11	26.3
323.15 K, x1 = 0.3475	1.97	27.6
323.15 K, x1 = 0.4472	1.61	31.3
323.15 K, x1 = 0.5485	1.48	32.1
328.15 K, x1 = 0.0499	–	16.3
328.15 K, x1 = 0.0999	–	17.3
328.15 K, x1 = 0.1997	–	19.7
328.15 K, x1 = 0.25	–	21
328.15 K, x1 = 0.2993	–	22.8
328.15 K, x1 = 0.3475	–	23.9
328.15 K, x1 = 0.4472	–	26.9
333.15 K, x1 = 0.0499	–	14.4
333.15 K, x1 = 0.0999	–	15.3
333.15 K, x1 = 0.149	–	16.1
333.15 K, x1 = 0.25	–	18.4
333.15 K, x1 = 0.2993	–	19.9
333.15 K, x1 = 0.3475	–	21
333.15 K, x1 = 0.3995	–	22
333.15 K, x1 = 0.4472	–	23.5
338.15 K, x1 = 0.0499	–	12.9
338.15 K, x1 = 0.0999	–	13.7
338.15 K, x1 = 0.149	–	14.2
338.15 K, x1 = 0.1997	–	15.2
338.15 K, x1 = 0.25	–	16.3
338.15 K, x1 = 0.3475	–	18.2
338.15 K, x1 = 0.3995	–	19
338.15 K, x1 = 0.5003	–	21.2
338.15 K, x1 = 0.5485	–	20.5
343.15 K, x1 = 0.0999	–	12.3
343.15 K, x1 = 0.149	–	12.7
343.15 K, x1 = 0.1997	–	13.5
343.15 K, x1 = 0.25	–	14.5
343.15 K, x1 = 0.3475	–	16.1
343.15 K, x1 = 0.3995	–	16.8
343.15 K, x1 = 0.4472	–	17.8
343.15 K, x1 = 0.5003	–	19.3
343.15 K, x1 = 0.5485	–	17.9
348.15 K, x1 = 0.0499	–	10.5
348.15 K, x1 = 0.149	–	11.4
348.15 K, x1 = 0.1997	–	12.1
348.15 K, x1 = 0.25	–	13
348.15 K, x1 = 0.3475	–	14.3
348.15 K, x1 = 0.3995	–	14.9
353.15 K, x1 = 0.0999	–	9.6
353.15 K, x1 = 0.149	–	10.4
353.15 K, x1 = 0.1997	–	11
353.15 K, x1 = 0.25	–	11.7
353.15 K, x1 = 0.3475	–	13
353.15 K, x1 = 0.3995	–	13.5
353.15 K, x1 = 0.4472	–	14.2
